Laboratory results as given in patent publication US10611778B2, “Fused bicyclic inhibitors of menin-MLL interaction” (Janssen Pharmaceutica NV, priority 2016, dated 2020).
Where “and” joins values, the source holds several entries; their conditions need not be identical. Equal values may be shown once. Where a name gives a salt, the structure may show the parent alone. Read-outs that look alike come from different tables or passages of the source.

Legend:
[1] = system: MV-4-11; assay: Proliferation assay (spheroid assay) MV-4-11; format: cell-based, human
In short: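 Cells were grown as spheroids in ultra-low attachment round-bottom wells with compound (0.3% DMSO) for 8 d at 37 °C, imaged every 4 h, with confluence as spheroid size. AUC of confluence versus time (t=0 baseline) was expressed as % of DMSO control, and absolute IC50 came from a least-squares nonlinear fit.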

[2] = system: MOLM14; assay: Proliferation assay (spheroid assay) MOLM14; format: cell-based, human; conditions: Homo sapiens
Experimental: (§1) The anti-proliferative effect of menin/MLL protein/protein interaction inhibitor test compounds was assessed in human leukemia cell lines. The cell lines MV-4-11 and MOLM14 harbor MLL translocations and express the MLL fusion proteins MLL-AF4 and MLL-AF9, respectively, as well as the wildtype protein from the second allele. […] K562 and KG1 were used as a control cell lines containing two MLL wildtype alleles in order to exclude compounds that display general cytotoxic effects.
(§2) MV-4-11 and MOLM14 were cultured in RPMI-1640 (Sigma Aldrich) supplemented with 10% fetal bovine serum (HyClone), 2 mM L-glutamine (Sigma Aldrich) and 50 μg/ml gentamycin (Gibco). K562 were propagated in RPMI-1640 (Sigma Aldrich) supplemented with 20% fetal bovine serum (HyClone), 2 mM L-glutamine (Sigma Aldrich) and 50 μg/ml gentamycin (Gibco). KG1 were cultured in Iscove's MDM (Gibco) supplemented with 20% fetal bovine serum (HyClone), 2 mM L-glutamine (Sigma Aldrich) and 50 μg/ml gentamycin (Gibco).
(§3) In order to assess the anti-proliferative effects, 1,500 MV-4-11, 300 MOLM14, 750 K562 or 1,300 KG1 cells were seeded in 200 μl media per well in 96-well round bottom, ultra-low attachment plates (Costar, catalogue number 7007). Cell seeding numbers were chosen based on growth curves to ensure linear growth throughout the experiment. Test compounds were added at different concentrations and the DMSO content was normalized to 0.3%. Cells were incubated for 8 d at 37° C. and 5% CO2. Spheroid like growth was monitored in real-time by live-cell imaging (IncuCyteZOOM, Essenbio, 4× objective) acquiring one image every four hours for 8 d. Confluence (%) as a measure of spheroid size was determined using an integrated analysis tool.
(§4) In order to determine the cumulative effect of the test compounds over time, the area under the curve (AUC) in a plot of confluence against time was calculated. Confluence at the beginning of the experiment (t=0) was used as baseline for the AUC calculation.
(§5) Absolute IC50 values were calculated according to the following procedure: % Control=(AUC sample/AUC control)*100
(§6) AUC control=mean AUC of control values (cells without compound/DMSO as vehicle control)
(§7) A non-linear curve fit was applied using the least squares (ordinary) fit method to the plot of % control versus compound concentration. Based on this, the absolute IC50 value (half maximal inhibitory concentration of the test compound causing an anti-proliferative effect of 50% relative to the vehicle control) was calculated.

[3] = molecular target: T1, Menin/MLL (terbium chelate-labeled menin, FITC-MBM1 peptide) (Homo sapiens, UniProt O00255, T541A); assay: Menin/MLL homogenous time-resolved fluorescence (HTRF) assay; format: binding
T1 construct: Menin (a.a. 1-610-6×his tag) was labeled with terbium cryptate as follows
T1 sequence (O00255 with tags, fused parts or gaps T541A): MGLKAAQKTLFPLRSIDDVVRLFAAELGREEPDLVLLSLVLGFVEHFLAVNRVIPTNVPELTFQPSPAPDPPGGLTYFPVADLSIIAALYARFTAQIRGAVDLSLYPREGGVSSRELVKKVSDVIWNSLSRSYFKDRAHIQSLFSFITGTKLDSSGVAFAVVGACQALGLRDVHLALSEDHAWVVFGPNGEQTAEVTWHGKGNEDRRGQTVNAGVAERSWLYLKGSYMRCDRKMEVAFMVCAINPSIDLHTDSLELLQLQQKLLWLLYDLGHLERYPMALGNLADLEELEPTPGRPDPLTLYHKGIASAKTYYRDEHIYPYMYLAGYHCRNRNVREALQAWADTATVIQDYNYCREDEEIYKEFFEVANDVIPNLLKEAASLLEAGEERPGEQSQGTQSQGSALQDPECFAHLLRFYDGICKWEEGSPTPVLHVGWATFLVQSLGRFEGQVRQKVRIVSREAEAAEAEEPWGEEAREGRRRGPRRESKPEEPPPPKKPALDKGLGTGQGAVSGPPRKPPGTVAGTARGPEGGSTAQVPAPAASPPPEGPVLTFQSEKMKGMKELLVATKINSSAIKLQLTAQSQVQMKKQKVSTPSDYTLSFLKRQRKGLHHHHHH
In short: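 Compound preincubated 5 min with terbium-cryptate-labeled menin (aa 1-610, His-tagged; 100 pM final), then 75 nM FITC-MBM1 peptide added, 15 min at ambient temperature; 0.5% DMSO, Tris pH 7.5 buffer. HTRF ratio 520/490 nm; % inhibition vs saturating competitor, IC50 from 11-point three-fold titration from 31 μM.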

[4] = system: K562; assay: Proliferation assay (spheroid assay) K562 control cell line; format: cell-based; conditions: Homo sapiens
Experimental: as §1, §2, §3, §4, §5, §6, §7

[5] = molecular target: T2, Menin/MLL (menin, FITC-MBM1 peptide) (Homo sapiens, UniProt O00255, T541A); assay: Menin/MLL fluorescence polarization (FP) assay; format: binding; conditions: averaged values over all measurements; read-out: Menin FP assay (IC50)
T2 construct: 6xHis (C)
T2 sequence (O00255 with tags, fused parts or gaps T541A): T1 sequence (O00255 with tags, fused parts or gaps T541A)
Experimental: Pharmacological Part 1) Menin/MLL Fluorescence Polarization Assay
To a non-surface binding, black 384-well microtiter plate was added 50 nL 160× test compound in DMSO and 4 μL 2× menin in assay buffer (40 mM Tris-HCl, pH 7.5, 50 mM NaCl, 1 mM DTT and 0.001% Tween 20). After incubation of test compound and menin for 10 min at ambient temperature, 4 μL 2×FITC-MBM1 peptide (FITC-β-alanine-SARWRFPARPGT-NH2) in assay buffer was added, the microtiter plate centrifuged at 1000 rpm for 1 min and the assay mixtures incubated for 15 min at ambient temperature. The relative amount of menin: FITC-MBM1 complex present in an assay mixture is determined by measuring the fluorescence polarization (FP) of the FITC label with a BMG Pherastar plate reader (ex. 485 nm/em. 520 nm) at ambient temperature. The final concentrations of reagents in the binding assay are 100 nM menin, 5 nM FITC-MBM1 peptide and 0.625% DMSO in assay buffer. Dose-response titrations of test compounds are conducted using an 11 point, three-fold serial dilution scheme, starting at 31 μM.
Compound potencies were determined by first calculating % inhibition at each compound concentration according to equation 1: % inhibition=((HC−LC)−(FP^compound−LC))/(HC−LC))*100 (Eqn 1)
Where LC and HC are the FP values of the assay in the presence or absence of a saturating concentration of a compound that competes with FITC-MBM1 for binding to menin, and FP^compound is the measured FP value in the presence of the test compound. HC and LC FP values represent an average of at least 16 replicates per plate.
Where Bottom and Top are the lower and upper asymptotes of the dose-response curve, respectively, IC50 is the concentration of compound that yields 50% inhibition of signal and h is the Hill coefficient.

[6] = system: KG1; assay: Proliferation assay (spheroid assay) KG1 control cell line; format: cell-based; conditions: Homo sapiens, KG-1, averaged values over all measurements
Experimental: as §1, §2, §3, §4, §5, §6, §7

[7] = MOLM-14, MOLM14, averaged values over all measurements, read-out: Spheroid assay MOLM14 (IC50)
[8] = averaged values over all measurements, read-out: Menin HTRF assay (IC50)
[9] = K562 control cell line, averaged values over all measurements, read-out: Spheroid assay K562 (IC50)
[10] = Homo sapiens, MV4-11, MV-4-11, averaged values over all measurements, read-out: Spheroid assay MV-4-11 (IC50)

melting point [°C]	IC50 [2, 7] [µM]	IC50 [3, 8] [nM]	IC50 [1, 10] [µM]	SMILES	IC50 [6] [µM]	also measured
152				O=S(=O)(c1ccccc1)N1CC[C@@H]2CN(c3ncnc4sc(CC(F)(F)F)cc34)CC[C@@H]21 (as salt: HCl) (hydrate or solvate) [Compound 16]		
140				FC(F)(F)Cc1cc2c(N3CCC4C(CCN4Cc4ncc[nH]4)C3)ncnc2s1 (stereo not drawn) (as salt: HCl) [Compound 22]		
140				CC(C)CN1CCC2CN(c3ncnc4sc(CC(F)(F)F)cc34)CCC21 (stereo not drawn) (as salt: HCl) [Compound 25]		
				[2H]C([2H])(c1ccccc1)N1CC[C@@H]2CN(c3ncnc4sc(CC(F)(F)F)cc34)CC[C@@H]21 (single isomer, unassigned) [Compound 5]		IC50 ([1]; MV-4-11, 8 d, individual measurements (not averaged), read-out: (2) Spheroid assay MV-4-11 (IC50 (μM))): 2.1 µM and > 15 µM; IC50 ([2]; MOLM-14, 192 h, MOLM14, 8 d, individual measurements (not averaged), read-out: (2) Spheroid assay MOLM14 (IC50 (μM))): 4.3 µM; IC50 ([3]; individual measurements (not averaged), read-out: (3) Menin HTRF assay (IC50 (nM))): 9 nM; IC50 ([4]; 192 h, K562, 8 d, individual measurements (not averaged), read-out: (2) Spheroid assay K562 (IC50 (μM))): > 15 µM
	14.6	510		Fc1ccccc1CN1CC[C@@H]2CN(c3ncnc4sc(CC(F)(F)F)cc34)CC[C@@H]21 (single isomer, unassigned) [Compound 7]		IC50 [5]: 0.63 µM; IC50 [4, 9]: > 15 µM
	0.98	31	0.38	CC(C)(C)OC(=O)N1CCC(CN2CC[C@@H]3CN(c4ncnc5sc(CC(F)(F)F)cc45)C[C@@H]3C2)CC1 (single isomer, unassigned) [Compound 20]		IC50 [4, 9]: > 15 µM
140		~1260		FC(F)(F)Cc1cc2c(N3C[C@@H]4CCN(Cc5ccccc5)C[C@@H]43)ncnc2s1 (single isomer, unassigned) [Compound 30]		
150		1080		FC(F)(F)Cc1cc2c(N3C[C@H]4CCN(Cc5ccccc5)C[C@H]43)ncnc2s1 (single isomer, unassigned) [Compound 31]		
	1.4	15	0.22	CC(C)CN1CC[C@@H]2CN(c3ncnc4sc(CC(F)(F)F)cc34)C[C@@H]2C1 (single isomer, unassigned) [Compound 36]	> 15	IC50 [4, 9]: > 15 µM
	1.6	21	0.47	FC(F)(F)Cc1cc2c(N3C[C@H]4CCN(Cc5ccc(Cl)nc5)C[C@H]4C3)ncnc2s1 (single isomer, unassigned) [Compound 42]	> 15	
	1.8	16	0.28	COc1ccc(CN2CC[C@@H]3CN(c4ncnc5sc(CC(F)(F)F)cc45)C[C@@H]3C2)cn1 (single isomer, unassigned) [Compound 45]	> 15	
	2.1	67	0.59	CCCN1CC[C@@H]2CN(c3ncnc4sc(CC(F)(F)F)cc34)C[C@@H]2C1 (single isomer, unassigned) [Compound 57]	> 15	
	0.22	95	0.66	Cc1ncccc1CN1CC[C@@H]2CN(c3ncnc4sc(CC(F)(F)F)cc34)C[C@@H]2C1 (single isomer, unassigned) [Compound 60]	1.8	
	0.8	61	0.65	COc1cc(CN2CC[C@@H]3CN(c4ncnc5sc(CC(F)(F)F)cc45)C[C@@H]3C2)ccn1 (single isomer, unassigned) [Compound 63]	9.5	
	0.77	25	0.55	FC(F)(F)Cc1cc2c(N3C[C@H]4CCN(Cc5ccncc5)C[C@H]4C3)ncnc2s1 (single isomer, unassigned) [Compound 64]	8.4	
	3.2	27	0.32	O=c1ccc(CN2CC[C@@H]3CN(c4ncnc5sc(CC(F)(F)F)cc45)C[C@@H]3C2)c[nH]1 (single isomer, unassigned) [Compound 67]	> 15	
109		57	1.8	CC(C)CN1CC[C@H]2CN(c3ncnc4sc(CC(F)(F)F)cc34)C[C@H]2C1 (single isomer, unassigned) [Compound 69]		
	2	24	0.28	FC(F)(F)Cc1cc2c(N3C[C@H]4CCN(CC5CCNCC5)C[C@H]4C3)ncnc2s1 (single isomer, unassigned) [Compound 70B]		IC50 [4, 9]: > 15 µM
	2.2	54	0.42	Cn1cc(CN2CC[C@H]3CN(c4ncnc5sc(CC(F)(F)F)cc45)C[C@H]3C2)cn1 (single isomer, unassigned) [Compound 71B]	> 15	IC50 [4, 9]: > 15 µM
134		3450		FC(F)(F)Cc1cc2c(N3C[C@@H]4CN(Cc5ccccc5)C[C@@H]43)ncnc2s1 [Compound 29]		
